Results from ChEMBL document CHEMBL4024737, “Iodine catalyzed three component synthesis of 1-((2-hydroxy naphthalen-1-yl)(phenyl)(methyl))pyrrolidin-2-one derivatives: Rationale as potent PI3K inhibitors and anticancer agents” (Bioorg Med Chem Lett, 2017).
pIC50: −log10 of the molar value. Active and inactive are the calls of the source. The calls are words filed in the database; no cut-off is given here.

How the values were obtained:
[1] = biological target: T1, Phosphatidylinositol 4,5-bisphosphate 3-kinase catalytic subunit alpha isoform (Homo sapiens, UniProt P42336); assay: Inhibition of PI3K p110alpha (unknown origin) using PIP2 as substrate preincubated for 10 mins followed by substrate addition measured after 1 hr
T1 sequence (P42336 whole entry, canonical isoform): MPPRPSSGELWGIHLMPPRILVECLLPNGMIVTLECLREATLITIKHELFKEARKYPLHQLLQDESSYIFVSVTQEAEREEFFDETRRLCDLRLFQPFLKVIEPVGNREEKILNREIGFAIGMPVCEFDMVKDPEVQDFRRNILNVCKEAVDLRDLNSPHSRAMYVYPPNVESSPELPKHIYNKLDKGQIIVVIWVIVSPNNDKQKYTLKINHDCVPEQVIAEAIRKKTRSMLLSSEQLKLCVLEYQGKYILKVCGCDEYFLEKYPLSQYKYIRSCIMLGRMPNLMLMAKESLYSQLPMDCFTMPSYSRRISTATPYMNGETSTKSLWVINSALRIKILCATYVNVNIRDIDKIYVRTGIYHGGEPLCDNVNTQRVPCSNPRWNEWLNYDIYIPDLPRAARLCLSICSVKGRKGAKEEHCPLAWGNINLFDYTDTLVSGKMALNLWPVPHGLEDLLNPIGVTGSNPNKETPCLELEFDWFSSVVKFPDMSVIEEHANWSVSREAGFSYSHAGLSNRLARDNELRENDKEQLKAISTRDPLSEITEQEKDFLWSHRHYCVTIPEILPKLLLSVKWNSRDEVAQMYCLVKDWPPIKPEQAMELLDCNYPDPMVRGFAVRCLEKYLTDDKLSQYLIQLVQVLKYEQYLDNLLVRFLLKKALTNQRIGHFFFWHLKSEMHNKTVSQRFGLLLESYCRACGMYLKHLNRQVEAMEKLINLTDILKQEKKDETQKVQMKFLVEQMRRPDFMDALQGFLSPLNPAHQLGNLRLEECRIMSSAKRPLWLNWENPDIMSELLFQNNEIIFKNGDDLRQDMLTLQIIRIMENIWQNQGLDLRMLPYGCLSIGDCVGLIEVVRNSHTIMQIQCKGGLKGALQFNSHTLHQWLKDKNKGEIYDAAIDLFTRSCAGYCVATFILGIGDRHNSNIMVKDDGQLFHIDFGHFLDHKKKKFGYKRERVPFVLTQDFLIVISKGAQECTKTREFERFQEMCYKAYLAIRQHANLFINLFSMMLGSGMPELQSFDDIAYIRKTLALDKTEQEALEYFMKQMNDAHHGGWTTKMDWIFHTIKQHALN

[2] = test system: MCF7; assay: Growth inhibition of human MCF7 cells by MTT assay; assay type: functional, cell-based; conditions: for pIC50: Homo sapiens, MCF7
[3] = test system: HCT-116; assay: Growth inhibition of human HCT116 cells by MTT assay; assay type: functional, cell-based; conditions: for pIC50: Homo sapiens, HCT-116
[4] = biological target: T1, Phosphatidylinositol 4,5-bisphosphate 3-kinase catalytic subunit alpha isoform; assay: Inhibition of PI3K p110alpha (unknown origin) assessed as residual activity using PIP2 as substrate preincubated for 10 mins followed by substrate addition measured after 1 hr relative to control; parameters: concentration or dose not given beside the values

Row | SMILES | pIC50 [1] | growth inhibition (GI) [2] [%] | pIC50 [2] | growth inhibition (GI) [3] | pIC50 [3] | Activity [4] [%]
1 | Cc1ccc(C(c2c(O)ccc3ccccc23)N2CCCC2=O)cc1 (centres undefined) | > 5.30 | 56.46 | 5.32 | 26.28% | 4.61 | 52
2 | COc1ccccc1C(c1c(O)ccc2ccccc12)N1CCCC1=O (centres undefined) | ≤ 4.60 | 21.81 | 4.04 | inactive |  | 22
3 | COc1cccc2c1C(=O)c1c(O)c3c(c(O)c1C2=O)C[C@@](O)(C(=O)CO)C[C@@H]3O[C@H]1C[C@H](N)[C@H](O)[C@H](C)O1 [DOXORUBICIN] |  | 77.98 |  | inactive |  | 
4 | COc1cccc(C(c2c(O)ccc3ccccc23)N2CCCC2=O)c1 (centres undefined) | ≤ 4.82 | 39.71 | 4.82 | 24.55% | 4.82 | 46
5 | COC[C@H]1OC(=O)c2coc3c2[C@@]1(C)C1=C(C3=O)[C@@H]2CCC(=O)[C@@]2(C)C[C@H]1OC(C)=O |  |  |  |  |  | 76
6 | O=C1CCCN1C(c1ccc(F)cc1)c1c(O)ccc2ccccc12 (centres undefined) | ≤ 7.30 | 80.23 | 6.01 | 60.92% | 5.16 | 83
7 | O=C1CCCN1C(c1ccc(Cl)cc1Cl)c1c(O)ccc2ccccc12 (centres undefined) | > 6.00 | 61.71 | 5.37 | 28.26% | 4.85 | 62
8 | O=C1CCCN1C(c1cccc2ccccc12)c1c(O)ccc2ccccc12 (centres undefined) | > 5.30 | 60.46 | 5.35 | 36.14% | 4.61 | 59
9 | COc1ccc(C(c2c(O)ccc3ccccc23)N2CCCC2=O)cc1 (centres undefined) | ≤ 5.00 | 38.98 | 4.92 | 56.44% | 4.92 | 38
10 | O=C1CCCN1C(c1ccc(O)cc1O)c1c(O)ccc2ccccc12 (centres undefined) | ≤ 4.60 | 35.02 | 4.07 | inactive |  | 22
11 | O=C1CCCN1C(c1ccccc1Cl)c1c(O)ccc2ccccc12 (centres undefined) | ≤ 5.30 | 55.01 | 5.18 | 40.12% | 4.58 | 55
12 | O=C1CCCN1C(c1ccccc1Br)c1c(O)ccc2ccccc12 (centres undefined) | ≤ 7.30 | 76.06 | 5.99 | 48.12% | 4.89 | 79
13 | O=C1CCCN1C(c1ccccc1)c1c(O)ccc2ccccc12 (centres undefined) | ≤ 4.60 | 25.46 | 4.09 | inactive |  | 32
14 | O=C1CCCN1C(c1ccc(Br)cc1)c1c(O)ccc2ccccc12 (centres undefined) | ≤ 4.82 | 41.22 | 4.78 | 20.22% | 4.76 | 44
15 | O=C1CCCN1C(c1ccc(Cl)cc1)c1c(O)ccc2ccccc12 (centres undefined) | > 4.60 | 23.14 | 4.04 | inactive |  | 42
16 | O=C1CCCN1C(c1cccs1)c1c(O)ccc2ccccc12 (centres undefined) | ≤ 4.60 | 30.01 | 4.09 | inactive |  | 24
17 | O=C1CCCN1C(c1ccccc1F)c1c(O)ccc2ccccc12 (centres undefined) | ≤ 5.30 | 60.38 | 5.32 | 37.38% | 4.83 | 56
18 | N#Cc1ccc(C(c2c(O)ccc3ccccc23)N2CCCC2=O)cc1 (centres undefined) | ≤ 4.60 | 33.41 | 4.10 | inactive |  | 28
19 | O=C1CCCN1C(c1ccc(O)cc1)c1c(O)ccc2ccccc12 (centres undefined) | ≤ 4.60 | 30.98 | 4.51 | 28.14% | 4.51 | 28
